For test [1], the target named is T1, Tumor necrosis factor receptor superfamily member 1A (Homo sapiens, UniProt P19438).
T1 sequence (P19438 whole entry): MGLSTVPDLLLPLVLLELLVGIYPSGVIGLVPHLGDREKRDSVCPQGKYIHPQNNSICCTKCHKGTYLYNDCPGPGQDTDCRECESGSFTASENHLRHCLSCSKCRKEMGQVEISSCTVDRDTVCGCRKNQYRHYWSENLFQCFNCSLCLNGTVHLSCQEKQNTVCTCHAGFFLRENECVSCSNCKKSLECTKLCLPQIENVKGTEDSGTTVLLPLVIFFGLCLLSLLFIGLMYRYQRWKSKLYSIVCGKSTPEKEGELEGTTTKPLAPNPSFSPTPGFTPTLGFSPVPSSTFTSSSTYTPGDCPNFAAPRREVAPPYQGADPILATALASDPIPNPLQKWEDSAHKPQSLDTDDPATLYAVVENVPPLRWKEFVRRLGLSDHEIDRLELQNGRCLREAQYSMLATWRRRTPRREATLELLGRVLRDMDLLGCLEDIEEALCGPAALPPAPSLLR
The experiment in a line: Displacement of biotinylated peptide from C-terminal 6His-tagged human soluble TNFR1 (1 to 211 residues) extracted from Sf21 baculovirus expression system incubated for 90 mins by LanthaScreen Eu based TR-FRET binding assay.

The nature of test [2]: Inhibition of TNFalpha-induced NF-kappaB signal transduction pathway in human THP-1 cells preincubated for 1 hrs followed by TNFalpha addition and measured after 16 to 18 hrs by luminescence based microplate reader. The class given is cell-based.
Test [3] deals with T2, Tumor necrosis factor receptor superfamily member 1B (Homo sapiens, UniProt P20333).
T2 sequence (P20333 whole entry): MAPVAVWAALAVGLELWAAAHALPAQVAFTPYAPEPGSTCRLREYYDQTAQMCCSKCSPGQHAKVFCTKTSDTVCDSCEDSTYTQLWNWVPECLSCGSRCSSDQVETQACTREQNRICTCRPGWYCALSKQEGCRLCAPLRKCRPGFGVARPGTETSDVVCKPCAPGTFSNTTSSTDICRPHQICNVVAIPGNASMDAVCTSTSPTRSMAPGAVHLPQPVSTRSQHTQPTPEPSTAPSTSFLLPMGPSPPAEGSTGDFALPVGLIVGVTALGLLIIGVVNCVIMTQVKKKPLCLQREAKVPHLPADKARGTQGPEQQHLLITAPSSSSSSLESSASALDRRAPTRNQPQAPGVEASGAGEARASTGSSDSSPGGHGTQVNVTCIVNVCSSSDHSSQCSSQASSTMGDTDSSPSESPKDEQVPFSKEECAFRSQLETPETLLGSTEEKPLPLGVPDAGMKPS
Nature of the test: Binding affinity to C-terminal Avi-tagged human TNFR2 extracted from Sf21 baculovirus expression system assessed as dissociation constant incubated for 20 hrs in presence of ATP by SPR analysis. (In SPR one partner is held on a chip, and binding of the other changes the refractive index at the surface.)

Test [4] addresses T1, Tumor necrosis factor receptor superfamily member 1A. The experiment in a line: Binding affinity to C-terminal Avi-tagged human TNFRl extracted from Sf21 baculovirus expression system assessed as dissociation constant incubated for 20 hrs in presence of ATP by SPR analysis.

Numbered stars: 1 amine (or outer) side, 2 acyl side, 3 side chain; on linkers, the order of the positions; unused ones are H or OH. Bridge positions count the residues as written; N and C are the ends. Square brackets hold non-standard residues; d marks the D form. Peptide text beside a SMILES is read from it. X1 = COc1cccc2c([C@H](C)[C@](C)(N[*:1])C(=O)[*:2])c[nH]c12; Morpholine(3S-CO,6,6-Me2) = CC1(C)CN[C@H](C(=O)O)CO1; Trp(7-Cl) = N[C@@H](Cc1c[nH]c2c(Cl)cccc12)C(=O)O; Phe(4-COOH) = N[C@@H](Cc1ccc(C(=O)O)cc1)C(=O)O; X2 = O=C([C@H]1CC[C@@H](N[*:1])C1)[*:2]; Pip(4-aza) = O=C(O)[C@@H]1CNCCN1; 4Pal = N[C@@H](Cc1ccncc1)C(=O)O; NMeE = CN[C@@H](CCC(=O)O)C(=O)O; X3 = CC[C@H](C(=O)[*:1])[*:2]; NEtAla = CCN[C@@H](C)C(=O)O; αMeS = C[C@](N)(CO)C(=O)O; Nle = CCCC[C@H](N)C(=O)O; Sar = CNCC(=O)O

Broadly, the IC50 is the concentration needed to halve the response being measured. The Kd is the free concentration of one partner at which half of the binding sites on the other are occupied at equilibrium, for simple one-to-one binding. With `CCCC[C@@H]1NC(=O)[C@H]2CC[C@H](C2)NC(=O)[C@](C)([C@@H](C)c2c[nH]c3c(OC)cccc23)NC(=O)CN(C)C(=O)[C@H](Cc2ccc(O)cc2)NC(=O)[C@H](Cc2ccc(C(=O)O)cc2)NC(=O)[C@](C)(CO)NC(=O)[C@H](Cc2c[nH]c3c(Cl)cccc23)NC(=O)[C@H](Cc2ccncc2)NC(=O)[C@H](CC(=O)O)NC(=O)[C@H](CCC(=O)O)N(C)C(=O)[C@H](Cc2c[nH]c3ccccc23)NC(=O)[C@@H]2CNCCN2C(=O)[C@H](Cc2ccncc2)NC1=O` (cyclo([4Pal][Trp(7-Cl)][αMeS][Phe(4-COOH)]Y[Sar][X1][X2][Nle][4Pal][Pip(4-aza)]W[NMeE]D)), the IC50 in test [1] turned out to be 0.2 nM; in test [2], 1.2 nM. Further, the figures for the Kd in test [3] and in test [4] were more than 1000 nM and 0.1 nM, respectively.

With `CCCC[C@@H]1NC(=O)[C@@H](CC)SC[C@@H](C(N)=O)NC(=O)[C@](C)([C@@H](C)c2c[nH]c3c(OC)cccc23)NC(=O)CN(C)C(=O)[C@H](Cc2ccc(O)cc2)NC(=O)[C@H](Cc2ccc(C(=O)O)cc2)NC(=O)[C@](C)(CO)NC(=O)[C@H](Cc2c[nH]c3c(Cl)cccc23)NC(=O)[C@H](Cc2ccncc2)NC(=O)[C@H](CC(N)=O)NC(=O)[C@H](CCC(=O)O)N(C)C(=O)[C@H](Cc2c[nH]c3ccccc23)NC(=O)[C@@H]2COC(C)(C)CN2C(=O)[C@H](Cc2ccncc2)NC1=O` ([Nle][4Pal][Morpholine(3S-CO,6,6-Me2)]W[NMeE]N[4Pal][Trp(7-Cl)][αMeS][Phe(4-COOH)]Y[Sar][X1]C-NH2; linker N-14 via X3), the IC50 in test [1] is 0.55 nM; in test [2], 2.2 nM. Also, the Kd was more than 1000 nM in test [3] and 0.2 nM in test [4].

As to `CCCC[C@@H]1NC(=O)CSC[C@@H](C(N)=O)NC(=O)[C@](C)([C@@H](C)c2c[nH]c3c(OC)cccc23)NC(=O)CN(C)C(=O)[C@H](Cc2ccc(O)cc2)NC(=O)[C@H](Cc2ccc(C(=O)O)cc2)NC(=O)[C@](C)(CO)NC(=O)[C@H](Cc2c[nH]c3c(Cl)cccc23)NC(=O)[C@H](Cc2ccncc2)NC(=O)[C@H](CC(N)=O)NC(=O)[C@H](C)N(CC)C(=O)[C@H](Cc2c[nH]c3ccccc23)NC(=O)[C@@H]2COC(C)(C)CN2C(=O)[C@H](Cc2ccncc2)NC1=O` ({CH2CO}-[Nle][4Pal][Morpholine(3S-CO,6,6-Me2)]W[NEtAla]N[4Pal][Trp(7-Cl)][αMeS][Phe(4-COOH)]Y[Sar][X1]C-NH2; thioether N-14), the IC50 in test [1] is 0.6 nM; in test [2], 0.8 nM. Besides, the values for the Kd in test [3] and in test [4] were more than 1000 nM and 0.14 nM, respectively.

Values taken from ChEMBL document CHEMBL6103667, “Novel Cyclic Peptides Inhibiting Tumor Necrosis Factor Receptor 1 Activity” (ACS Med Chem Lett, 2025).
